Measured values taken from paper PMC6469291, “2-Nitroimidazole-Furanoside Derivatives for Hypoxia Imaging—Investigation of Nucleoside Transporter Interaction, ^18F-Labeling and Preclinical PET Imaging” (Pharmaceuticals, 2019).

Experiments:
Type in all cases: cell-based
hCNT1 (SLC28A1) = molecular target: T1, hCNT1 (SLC28A1) (Homo sapiens, UniProt O00337); test: Inhibition of [^3H]uridine uptake in yeast cells producing recombinant hCNT1
T1 construct: expressed in transfected cells; host or cells: Saccharomyces cerevisiae
T1 sequence (O00337 1-649): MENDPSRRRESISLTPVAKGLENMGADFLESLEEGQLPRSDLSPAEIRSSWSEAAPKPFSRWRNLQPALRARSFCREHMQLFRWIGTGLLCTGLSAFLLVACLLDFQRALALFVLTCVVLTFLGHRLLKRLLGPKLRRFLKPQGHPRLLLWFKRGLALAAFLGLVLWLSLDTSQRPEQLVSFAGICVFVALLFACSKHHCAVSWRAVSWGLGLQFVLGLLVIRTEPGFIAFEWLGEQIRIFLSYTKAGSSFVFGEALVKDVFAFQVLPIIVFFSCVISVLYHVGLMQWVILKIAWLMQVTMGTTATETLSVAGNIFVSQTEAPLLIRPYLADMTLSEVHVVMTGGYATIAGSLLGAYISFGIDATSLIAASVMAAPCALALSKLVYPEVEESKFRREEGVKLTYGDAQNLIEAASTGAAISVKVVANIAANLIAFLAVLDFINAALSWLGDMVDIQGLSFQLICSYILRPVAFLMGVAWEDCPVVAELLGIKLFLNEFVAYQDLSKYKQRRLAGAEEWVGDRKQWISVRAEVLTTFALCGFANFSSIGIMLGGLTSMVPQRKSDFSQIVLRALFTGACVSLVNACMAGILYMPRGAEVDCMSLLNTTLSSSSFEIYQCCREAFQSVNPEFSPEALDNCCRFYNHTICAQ
Protocol: (§1) The interaction of 2-nitroimidazole sugars with nucleoside transporters was determined by ability of the 2-nitroimidazole sugars to inhibit [^3H]uridine uptake in yeast cells producing recombinant human nucleoside transporters and results expressed as IC50 values.
(§2) Saccharomyces cerevisiae yeast was separately transformed with plasmids (pYPhENT1, pYPhENT2, pYPhCNT1, pYPhCNT2, or pYPhCNT3) encoding hNTs (hENT1, hENT2, hCNT1, hCNT2, or hCNT3, respectively) as described elsewhere. Uptake of 1 µmol/L [^3H]uridine (Moravek Biochemicals) into yeast was measured as previously described using a semi-automated cell harvester (Micro96 HARVESTER; Skatron Instruments, Tranby, Norway). Yeast was incubated at room temperature with 1 µmol/L [^3H]uridine in yeast growth media (pH 7.4) in the presence or absence (uninhibited controls) of graded concentrations (0–3 mM) of test compounds. The following compounds were used for transporter experiments: FAZA, β-FAZA, α-FAZDR, β-FAZDR. Uridine self-inhibition was used to determine maximum inhibition of mediated transport. Concentration–effect curves were subjected to nonlinear regression analysis using Prism software (version 4.03; GraphPad Software Inc.) to obtain the concentration of test compound that inhibited uridine uptake by 50%, relative to that of untreated cells (IC50 values). Each IC50 value determination was conducted with nine concentrations and four replicates per concentration and experiments were repeated two to three times.

hENT1 (SLC29A1) = molecular target: T2, hENT1 (SLC29A1) (Homo sapiens, UniProt Q99808); test: Inhibition of [^3H]uridine uptake in yeast cells producing recombinant hENT1; settings: inhibition of 1 µmol/L [^3H]uridine transport, yeast, 0–3 mM test compound, mean ± SE, n = 2–3; NI = no interaction
T2 construct: expressed in transfected cells; host or cells: Saccharomyces cerevisiae
T2 sequence (Q99808 1-456): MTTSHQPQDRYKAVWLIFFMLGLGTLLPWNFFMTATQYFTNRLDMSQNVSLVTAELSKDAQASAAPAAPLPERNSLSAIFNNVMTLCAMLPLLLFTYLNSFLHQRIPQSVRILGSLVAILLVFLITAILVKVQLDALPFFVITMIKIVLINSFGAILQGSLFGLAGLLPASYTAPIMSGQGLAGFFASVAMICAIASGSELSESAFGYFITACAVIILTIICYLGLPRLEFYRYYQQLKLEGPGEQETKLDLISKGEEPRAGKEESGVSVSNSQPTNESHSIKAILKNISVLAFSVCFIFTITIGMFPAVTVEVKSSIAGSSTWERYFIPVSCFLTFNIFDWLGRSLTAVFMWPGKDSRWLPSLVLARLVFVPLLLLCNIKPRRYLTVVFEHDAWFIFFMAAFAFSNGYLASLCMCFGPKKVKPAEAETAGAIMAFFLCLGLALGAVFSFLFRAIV
Protocol: as §1, §2

hCNT3 (SLC28A3) = molecular target: T3, hCNT3 (SLC28A3) (Homo sapiens, UniProt Q9HAS3); test: Inhibition of [^3H]uridine uptake in yeast cells producing recombinant hCNT3
T3 construct: expressed in transfected cells; host or cells: Saccharomyces cerevisiae
T3 sequence (Q9HAS3 1-691): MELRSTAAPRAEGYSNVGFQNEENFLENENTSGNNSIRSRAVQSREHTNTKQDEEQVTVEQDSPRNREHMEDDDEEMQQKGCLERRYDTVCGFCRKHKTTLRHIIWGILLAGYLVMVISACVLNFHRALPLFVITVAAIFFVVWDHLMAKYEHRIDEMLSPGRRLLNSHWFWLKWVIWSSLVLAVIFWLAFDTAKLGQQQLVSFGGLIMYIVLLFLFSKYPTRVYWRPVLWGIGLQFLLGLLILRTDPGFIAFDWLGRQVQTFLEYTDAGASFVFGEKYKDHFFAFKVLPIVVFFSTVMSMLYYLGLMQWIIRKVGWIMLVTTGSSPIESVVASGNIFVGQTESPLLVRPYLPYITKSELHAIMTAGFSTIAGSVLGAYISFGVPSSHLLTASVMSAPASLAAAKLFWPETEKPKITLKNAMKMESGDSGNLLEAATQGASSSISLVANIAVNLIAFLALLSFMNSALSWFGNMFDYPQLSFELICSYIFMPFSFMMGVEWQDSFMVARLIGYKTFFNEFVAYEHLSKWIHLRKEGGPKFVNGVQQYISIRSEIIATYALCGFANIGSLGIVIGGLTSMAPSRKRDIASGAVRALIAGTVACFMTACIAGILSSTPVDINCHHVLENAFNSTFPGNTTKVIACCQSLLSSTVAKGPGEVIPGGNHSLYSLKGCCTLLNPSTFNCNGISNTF
Protocol: as §1, §2

hCNT2 (SLC28A2) = molecular target: T4, hCNT2 (SLC28A2) (Homo sapiens, UniProt O43868); test: Inhibition of [^3H]uridine uptake in yeast cells producing recombinant hCNT2
T4 construct: expressed in transfected cells; host or cells: Saccharomyces cerevisiae
T4 sequence (O43868 1-658): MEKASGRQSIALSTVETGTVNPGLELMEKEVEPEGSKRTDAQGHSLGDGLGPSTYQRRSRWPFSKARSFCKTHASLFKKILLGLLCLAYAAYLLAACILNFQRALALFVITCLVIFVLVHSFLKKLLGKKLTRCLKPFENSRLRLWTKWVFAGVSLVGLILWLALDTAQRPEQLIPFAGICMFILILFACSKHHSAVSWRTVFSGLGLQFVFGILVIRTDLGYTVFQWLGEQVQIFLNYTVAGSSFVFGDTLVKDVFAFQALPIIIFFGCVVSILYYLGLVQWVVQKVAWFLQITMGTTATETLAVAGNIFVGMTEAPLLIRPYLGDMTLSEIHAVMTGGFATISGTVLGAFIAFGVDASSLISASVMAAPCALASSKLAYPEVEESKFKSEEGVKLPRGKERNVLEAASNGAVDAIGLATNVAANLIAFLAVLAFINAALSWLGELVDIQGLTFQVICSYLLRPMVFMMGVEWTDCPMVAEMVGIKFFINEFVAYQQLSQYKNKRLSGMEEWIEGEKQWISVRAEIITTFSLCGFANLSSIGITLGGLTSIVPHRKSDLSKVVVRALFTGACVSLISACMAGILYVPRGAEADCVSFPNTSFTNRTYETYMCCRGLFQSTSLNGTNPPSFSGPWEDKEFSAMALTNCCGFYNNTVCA
Protocol: as §1, §2

hENT2 (SLC29A2) = molecular target: T5, hENT2 (SLC29A2) (Homo sapiens, UniProt Q14542); test: Inhibition of [^3H]uridine uptake in yeast cells producing recombinant hENT2; settings: inhibition of 1 µmol/L [^3H]uridine transport, yeast, 0–3 mM test compound, mean ± SE, n = 2–3; NI = no interaction
T5 construct: expressed in transfected cells; host or cells: Saccharomyces cerevisiae
T5 sequence (Q14542 1-456): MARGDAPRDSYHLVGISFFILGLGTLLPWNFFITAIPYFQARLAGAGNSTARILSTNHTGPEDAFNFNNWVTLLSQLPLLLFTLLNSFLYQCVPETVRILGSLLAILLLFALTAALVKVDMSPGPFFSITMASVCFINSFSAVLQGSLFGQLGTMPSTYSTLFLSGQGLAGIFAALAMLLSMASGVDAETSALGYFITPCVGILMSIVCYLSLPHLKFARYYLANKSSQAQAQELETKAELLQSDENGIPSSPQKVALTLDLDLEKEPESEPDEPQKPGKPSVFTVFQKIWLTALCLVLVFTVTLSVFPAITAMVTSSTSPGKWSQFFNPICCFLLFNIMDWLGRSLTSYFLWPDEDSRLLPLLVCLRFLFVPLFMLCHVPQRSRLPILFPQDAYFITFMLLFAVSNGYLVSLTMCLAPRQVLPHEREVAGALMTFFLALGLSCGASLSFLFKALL
Protocol: as §1, §2

IC50 (hCNT1 (SLC28A1)): 290 ± 44 µM
IC50 (hENT1 (SLC29A1)): > 3000 µM
IC50 hENT1 (SLC29A1) (hENT1 (SLC29A1)): no interaction
IC50 (hCNT3 (SLC28A3)): 1380 ± 100 µM
IC50 (hCNT2 (SLC28A2)): 640 ± 10 µM
IC50 (hENT2 (SLC29A2)): > 3000 µM
IC50 hENT2 (SLC29A2) (hENT2 (SLC29A2)): no interaction
Compound: O=[N+]([O-])c1nccn1[C@H]1O[C@H](CF)[C@@H](O)[C@@H]1O [FAZA, 1-(5′-deoxy-5′-fluoro-α-D-arabinofuranosyl)-2-nitroimidazole]
